#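 Cultured in 96-well plates, cells were exposed to test compound for 48 hours across five concentrations. At the TGI there is no net growth.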
# Assays:
# Assay in all cases: inhibition of tumour cell growth, NCI panel, 48 h
# [1] = test system: 786-0 renal
# [2] = test system: A549 NSCLC
# [3] = test system: BT-549 breast
# [4] = test system: CAKI-1 renal
# [5] = test system: CCRF-CEM leukemia
# [6] = test system: COLO 205 colon
# [7] = test system: DU-145 prostate
# [8] = test system: EKVX NSCLC
# [9] = test system: HCC-2998 colon
# [10] = test system: HCT-116 colon
# [11] = test system: HCT-15 colon
# [12] = test system: HOP-62 NSCLC
# [13] = test system: HOP-92 NSCLC
# [14] = test system: HS 578T breast
# [15] = test system: HT29 colon
# [16] = test system: IGROV1 ovarian
# [17] = test system: K-562 leukemia
# [18] = test system: KM12 colon
# [19] = test system: LOX IMVI melanoma
# [20] = test system: M14 melanoma
# [21] = test system: MALME-3M melanoma
# [22] = test system: MCF7 breast
# [23] = test system: MDA-MB-231 breast
# [24] = test system: MDA-MB-435
# [25] = test system: MDA-N
# [26] = test system: MOLT-4 leukemia
# [27] = test system: NCI-H226 lung
# [28] = test system: NCI-H23 lung
# [29] = test system: NCI-H460 lung
# [30] = test system: NCI/ADR-RES ovarian
# [31] = test system: OVCAR-3 ovarian
# [32] = test system: OVCAR-4 ovarian
# [33] = test system: OVCAR-5 ovarian
# [34] = test system: OVCAR-8 ovarian
# [35] = test system: PC-3 prostate
# [36] = test system: RPMI-8226 leukemia
# [37] = test system: RXF 393 renal
# [38] = test system: SF-268 CNS
# [39] = test system: SF-295 CNS
# [40] = test system: SF-539 CNS
# [41] = test system: SK-MEL-2 melanoma
# [42] = test system: SK-MEL-5 melanoma
# [43] = test system: SK-OV-3 ovarian
# [44] = test system: SN12C renal
# [45] = test system: SNB-19 CNS
# [46] = test system: SNB-75 CNS
# [47] = test system: SW-620 colon
# [48] = test system: T-47D breast
# [49] = test system: U251 CNS
# [50] = test system: UACC-257 melanoma
# [51] = test system: UACC-62 melanoma
# [52] = test system: UO-31 renal
# [53] = test system: A498 renal
# [54] = test system: ACHN renal
# [55] = test system: HL-60(TB) leukemia
# [56] = test system: NCI-H522 lung
# [57] = test system: SK-MEL-28 melanoma
# [58] = test system: SR leukemia
# [59] = test system: TK-10 renal
smiles,measurement,setting,value
CCCc1cc(=O)oc2c3c(c4c(c12)OC(C)(C)CC4)O[C@H](C)[C@@H](C)[C@H]3O,TGI,[1],29.8 µM
same,TGI,[2],64 µM
same,TGI,[3],26.6 µM
same,TGI,[4],35.1 µM
same,TGI,[5],33.8 µM
same,TGI,[6],33.6 µM
same,TGI,[7],29.8 µM
same,TGI,[8],26.2 µM
same,TGI,[9],31.8 µM
same,TGI,[10],29.4 µM
same,TGI,[11],27.5 µM
same,TGI,[12],35.3 µM
same,TGI,[13],33.3 µM
same,TGI,[14],50.2 µM
same,TGI,[15],22.7 µM
same,TGI,[16],30.8 µM
same,TGI,[17],21.1 µM
same,TGI,[18],28.7 µM
same,TGI,[19],31.7 µM
same,TGI,[20],37.2 µM
same,TGI,[21],37.9 µM
same,TGI,[22],43.2 µM
same,TGI,[23],30.9 µM
same,TGI,[24],25.7 µM
same,TGI,[25],23.7 µM
same,TGI,[26],27.8 µM
same,TGI,[27],34.2 µM
same,TGI,[28],30.3 µM
same,TGI,[29],41.7 µM
same,TGI,[30],33.1 µM
same,TGI,[31],37.7 µM
same,TGI,[32],28.6 µM
same,TGI,[33],31.6 µM
same,TGI,[34],32.6 µM
same,TGI,[35],23.5 µM
same,TGI,[36],18.8 µM
same,TGI,[37],47.3 µM
same,TGI,[38],35.1 µM
same,TGI,[39],32 µM
same,TGI,[40],41.9 µM
same,TGI,[41],49.1 µM
same,TGI,[42],29.3 µM
same,TGI,[43],31.7 µM
same,TGI,[44],34.3 µM
same,TGI,[45],32.2 µM
same,TGI,[46],31.3 µM
same,TGI,[47],35.8 µM
same,TGI,[48],29.8 µM
same,TGI,[49],32.2 µM
same,TGI,[50],28.1 µM
same,TGI,[51],27.4 µM
same,TGI,[52],26.7 µM
CC(=O)N=C1C=C(NC(C)=O)C(=O)c2ccccc21,TGI,[1],3.37 µM
same,TGI,[53],28.6 µM
same,TGI,[2],19.1 µM
same,TGI,[54],3.12 µM
same,TGI,[3],4.85 µM
same,TGI,[4],3.43 µM
same,TGI,[5],7.62 µM
same,TGI,[6],3.79 µM
same,TGI,[7],3.18 µM
same,TGI,[8],12.5 µM
same,TGI,[9],34.3 µM
same,TGI,[10],3.62 µM
same,TGI,[11],9.13 µM
same,TGI,[55],6.84 µM
same,TGI,[12],40.4 µM
same,TGI,[13],3.15 µM
same,TGI,[14],56.5 µM
same,TGI,[15],6.27 µM
same,TGI,[16],3.59 µM
same,TGI,[17],7.01 µM
same,TGI,[18],17.5 µM
same,TGI,[19],3.19 µM
same,TGI,[20],3.33 µM
same,TGI,[21],3.62 µM
same,TGI,[22],3.46 µM
same,TGI,[24],3.48 µM
same,TGI,[25],3.38 µM
same,TGI,[26],5.17 µM
same,TGI,[27],14.9 µM
same,TGI,[28],2.3 µM
same,TGI,[29],28.1 µM
same,TGI,[56],3.06 µM
same,TGI,[30],7.59 µM
same,TGI,[32],3.09 µM
same,TGI,[33],4.58 µM
same,TGI,[34],6.04 µM
same,TGI,[35],7.49 µM
same,TGI,[36],4.13 µM
same,TGI,[37],5.46 µM
same,TGI,[38],10.2 µM
same,TGI,[39],8.88 µM
same,TGI,[40],6.39 µM
same,TGI,[41],10.7 µM
same,TGI,[57],8.04 µM
same,TGI,[42],3.19 µM
same,TGI,[43],19.9 µM
same,TGI,[44],3.47 µM
same,TGI,[45],7.9 µM
same,TGI,[46],8.66 µM
same,TGI,[58],4.06 µM
same,TGI,[47],3.86 µM
same,TGI,[48],4.05 µM
same,TGI,[59],12.3 µM
same,TGI,[49],10.7 µM
same,TGI,[50],3.33 µM
same,TGI,[51],6.18 µM
same,TGI,[52],4.26 µM
Cc1ccc2nc(NC(=O)C(=O)C3C(=O)NC(=S)NC3=O)sc2c1,TGI,[1],> 100 µM
same,TGI,[53],> 100 µM
same,TGI,[2],> 100 µM
same,TGI,[54],> 100 µM
same,TGI,[3],> 100 µM
same,TGI,[4],> 100 µM
same,TGI,[5],> 100 µM
same,TGI,[8],> 100 µM
same,TGI,[9],> 100 µM
same,TGI,[10],> 100 µM
same,TGI,[11],> 100 µM
same,TGI,[55],> 100 µM
same,TGI,[12],> 100 µM
same,TGI,[13],> 100 µM
same,TGI,[14],> 100 µM
same,TGI,[15],> 100 µM
same,TGI,[16],> 100 µM
same,TGI,[18],> 100 µM
same,TGI,[19],> 100 µM
same,TGI,[20],> 100 µM
same,TGI,[21],> 100 µM
same,TGI,[22],> 100 µM
same,TGI,[23],> 100 µM
same,TGI,[24],> 100 µM
same,TGI,[25],> 100 µM
same,TGI,[26],> 100 µM
same,TGI,[27],> 100 µM
same,TGI,[28],> 100 µM
same,TGI,[29],> 100 µM
same,TGI,[56],> 100 µM
same,TGI,[30],> 100 µM
same,TGI,[31],> 100 µM
same,TGI,[32],> 100 µM
same,TGI,[33],> 100 µM
same,TGI,[34],> 100 µM
same,TGI,[35],> 100 µM
same,TGI,[36],> 100 µM
same,TGI,[37],> 100 µM
same,TGI,[38],> 100 µM
same,TGI,[39],> 100 µM
same,TGI,[40],> 100 µM
same,TGI,[41],> 100 µM
same,TGI,[57],> 100 µM
same,TGI,[42],> 100 µM
same,TGI,[43],> 100 µM
same,TGI,[44],> 100 µM
same,TGI,[45],> 100 µM
same,TGI,[46],> 100 µM
same,TGI,[47],> 100 µM
same,TGI,[48],> 100 µM
same,TGI,[59],> 100 µM
same,TGI,[49],> 100 µM
same,TGI,[50],> 100 µM
same,TGI,[51],> 100 µM
same,TGI,[52],> 100 µM

# Source: PubChem BioAssay (NCI)
